According to paper PMC7367873, “Dissecting the sequence determinants for dephosphorylation by the catalytic subunits of phosphatases PP1 and PP2A” (Nature Communications, 2020):
One block for each substance: values may come before it.

What was measured:
[1] = tested on: GFP-14-3-3β and its binding proteins; test: GFP-14-3-3β co-IP with LC-MS/MS label-free quantification, untreated versus PP1c-treated; design: species or system human
Description: (§1) HeLa Kyoto cells expressing transiently transfected pEGFP(C1)-14-3-3β or pEGFP(C1) control plasmid, were incubated with 20 nM Calyculin A (# 9902 S, Cell Signaling Technology) for 12 min. Cells were washed twice on ice with cold PBS and after addition of 500 µL lysis buffer (100 mM NaCl, 10 mM Tris, 0.1% IGEPAL, 1 mM EDTA, 1 mM EGTA, 20 nM Calyculin A, 1x cOmplete Mini protease inhibitor cocktail (Sigma), 1 mM DTT, 1 mM MnCl2) cells were scraped from plates, lysed by 10 pushes through an injection needle (21 G, BD) and the insoluble fraction was pelleted by centrifugation (10 min, 10^4 rcf, 4 °C). Supernatants were then subjected to incubation with 1 µM recombinant phosphatase or buffer for 1 h at 30 °C. Next, we subjected samples to immunoprecipitation using α-GFP nanobodies covalently coupled to agarose beads (2 h, 4 °C, obtained from the EMBL PEPcore Core Facility). Beads were then washed three times with lysis buffer and samples were eluted in 1x LDS sample buffer (Thermo Fisher Scientific) by heating to 70 °C for 10 min.
(§2) The samples were then reduced with 25 mM dithiothreitol (10 min at 70 °C) and alkylated with 55 mM chloroacetamide (room temperature, 30 min, in the dark). Proteins were run on a precast 4–12% NuPAGE gel (ThermoFisher Scientific) for about 1 cm to concentrate the sample prior to in-gel tryptic digestion, which was performed according to the standard procedures. The peptides obtained were dried to completeness and resuspended in 12 µL of buffer A (0.1% FA), and 5 µL of sample were injected per MS measurement. The experiment was carried out in three independent replicates.
(§3) The samples were analyzed by LC-MS/MS on a Dionex Ultimate 3000 nano-HPLC coupled online to a Fusion Lumos Tribrid mass spectrometer (Thermo Fisher Scientific). Peptides were delivered to a trap column (75 µm × 2 cm, packed in-house with 5 µm C18 resin; Reprosil PUR AQ, Dr. Maisch) and washed using 0.1% FA at a flow rate of 5 µL/min for 10 min. Subsequently, peptides were transferred to an analytical column (75 µm × 45 cm, packed in-house with 3 µm C18 resin; Reprosil Gold) applying a flow rate of 300 nL/min and separated using a 60 min linear gradient from 4% to 32% LC solvent B (0.1% FA, 5% DMSO in ACN) in LC solvent A (0.1% FA in 5% DMSO). The eluate from the analytical column was sprayed via a stainless steel emitter (Thermo Fisher Scientific) at a source voltage of 2.1 kV into the mass spectrometer. The transfer capillary was heated to 275 °C. The Fusion Lumos was operated in positive ionization mode and data-dependent acquisition (DDA), automatically switching between MS1 and MS2 spectrum acquisition. Full scan MS1 spectra were recorded in the Orbitrap from 360 to 1300 m/z at a resolution of 60k (automatic gain control (AGC) target value of 4e5 charges, maximum injection time (maxIT) of 50 ms). Up to 20 peptide precursors were isolated (isolation window, 1.7 m/z; maximum injection time, 25 ms; and AGC value, 1e5), fragmented by high-energy collision-induced dissociation (HCD) using 30% normalized collision energy (NCE), and analyzed at a resolution of 15k in the Orbitrap. Precursor ions that were singly charged, unassigned, or with charge states >6+ were excluded. The dynamic exclusion duration of fragmented precursor ions was 20 s.
(§4) Peptide and protein identification and LFQ were performed using MaxQuant software (version 1.6.1.0)[64] by searching the data against all canonical protein sequences as annotated in the Swissprot reference database (human proteins only, 20193 entries, downloaded 22 March 2016, internally annotated with PFAM domains) using the embedded search engine Andromeda[65]. The MaxQuant search was performed using two variable modifications; oxidation of methionine and N-terminal protein acetylation. Carbamidomethylation on cysteines was specified as a fixed modification. Trypsin (Trypsin/P) was specified as the proteolytic enzyme with up to two allowed missed cleavage sites.

[2] = tested on: GFP-14-3-3β; test: GFP-14-3-3β co-IP with LC-MS/MS, untreated GFP-14-3-3β versus GFP control (14-3-3 interactome); format: binding, human
Description: as §1, §2, §3, §4

[3] = PP1 vs untreated, LFQ intensities, replicates 1-3
[4] = untreated vs GFP, LFQ intensities, replicates 1-3
[5] = GFP-14-3-3β co-IP LC-MS/MS, PP1 vs untreated, student's t-test, label-free quantification, 3 replicates each
[6] = GFP-14-3-3β co-IP LC-MS/MS, untreated vs GFP, student's t-test, label-free quantification, 3 replicates each
[7] = PP1 vs untreated, LFQ intensities, 3 replicates each
[8] = untreated vs GFP, LFQ intensities, 3 replicates each
[9] = pairwise comparison PP1 vs untreated, student's t-test, 3 replicates each, LC-MS/MS label-free quantification
[10] = pairwise comparison untreated GFP-14-3-3β vs GFP, student's t-test, 3 replicates each, LC-MS/MS label-free quantification
[11] = PP1 vs untreated, label-free quantification
[12] = untreated vs GFP, label-free quantification
[13] = pairwise comparison PP1 vs untreated
[14] = pairwise comparison untreated vs GFP

- Difference (log2), PP1 vs untreated ([1]; log2 difference, pairwise comparison PP1 vs untreated, label-free quantification, 3 replicates each): 1.3455
Substance: RFC5
- Difference (log2), untreated vs GFP ([2]; log2 difference, pairwise comparison untreated vs GFP, label-free quantification, 3 replicates each): -0.3031

- Difference (log2), PP1 vs untreated [1, 3]: -0.7631 log2
Substance: RICTOR
- Difference (log2), untreated vs GFP [2, 4]: 3.3487 log2

- Difference (log2), PP1 vs untreated [1, 5]: -0.2892 log2
Substance: RNF5
- Difference (log2), untreated vs GFP [2, 6]: 0.3906 log2

- Difference (log2), PP1 vs untreated [1, 7]: 0.6499 log2
Substance: RNF213
- Difference (log2), untreated vs GFP [2, 8]: 0.8982 log2

- Difference (log2), PP1 vs untreated [1, 3]: -1.739 log2
Substance: RPA3
- Difference (log2), untreated vs GFP [2, 4]: -0.7925 log2

- Difference (log2), PP1 vs untreated [1, 3]: -1.037 log2
Substance: SEC16A
- Difference (log2), untreated vs GFP [2, 4]: 2.809 log2

- Difference (log2), PP1 vs untreated [1, 9]: -4.908 log2
Substance: SFN
- Difference ([2]; UntrtedvsGFP, Perseus raw output, LFQ intensity difference): 10.1517
- Difference (log2), untreated vs GFP [2, 10]: 10.1517 log2

- Difference (log2), PP1 vs untreated [1, 9]: -2.387 log2
Substance: SHROOM3
- Difference (log2), untreated vs GFP [2, 10]: 4.814 log2

- Difference (log2), PP1 vs untreated [1, 5]: -0.2534 log2
Substance: SLC7A5
- Difference (log2), untreated vs GFP [2, 6]: 0.7726 log2

- Difference (log2), PP1 vs untreated [1, 3]: -1.929 log2
Substance: SMARCA5
- Difference (log2), untreated vs GFP [2, 4]: 3.229 log2

- Difference (log2), PP1 vs untreated [1, 5]: -0.1766 log2
Substance: SMN1
- Difference (log2), untreated vs GFP [2, 6]: 1.023 log2

- Difference (log2), PP1 vs untreated [1, 5]: -0.2654 log2
Substance: SNRNP200
- Difference (log2), untreated vs GFP [2, 6]: 1.652 log2

- Difference (log2), PP1 vs untreated [1, 11]: 0.818 log2
Substance: SOGA1
- Difference (log2), untreated vs GFP [2, 12]: -0.02242 log2

- Difference (log2), PP1 vs untreated [1, 9]: -2.033 log2
Substance: SPTAN1
- Difference (log2), untreated vs GFP [2, 10]: 0.5148 log2

- Difference (log2), PP1 vs untreated [1, 3]: -1.61 log2
Substance: SPTBN1
- Difference (log2), untreated vs GFP [2, 4]: 0.3641 log2

- Difference (log2), PP1 vs untreated [1, 5]: -0.4375 log2
Substance: SQSTM1
- Difference (log2), untreated vs GFP [2, 6]: 0.1051 log2

- Difference (log2), PP1 vs untreated [1, 9]: -5.178 log2
Substance: SRGAP1
- Difference (log2), untreated vs GFP [2, 10]: 5.319 log2

- Difference (log2), PP1 vs untreated [1, 9]: -5.683 log2
Substance: SRGAP2
- Difference (log2), untreated vs GFP [2, 10]: 5.241 log2

- Difference (log2), PP1 vs untreated [1, 9]: -3.492 log2
Substance: SRSF1
- Difference (log2), untreated vs GFP [2, 10]: 4.313 log2

- Difference (log2), PP1 vs untreated [1, 9]: -2.154 log2
Substance: SRSF3
- Difference (log2), untreated vs GFP [2, 10]: 2.78 log2

- Difference (log2), PP1 vs untreated [1, 11]: 0.7419 log2
Substance: SSRP1
- Difference (log2), untreated vs GFP [2, 12]: 1.339 log2

- Difference (log2), PP1 vs untreated [1, 13]: 0.02924 log2
Substance: STOM
- Difference (log2), untreated vs GFP [2, 14]: -0.5691 log2

- Difference (log2), PP1 vs untreated [1, 13]: 0.1332 log2
Substance: SUPT16H
- Difference (log2), untreated vs GFP [2, 14]: 0.2233 log2

- Difference (log2), PP1 vs untreated [1, 11]: 0.892 log2
Substance: SVIL
- Difference (log2), untreated vs GFP [2, 12]: -1.069 log2

- Difference (log2), PP1 vs untreated [1, 13]: 0.2079 log2
Substance: SYNCRIP
- Difference (log2), untreated vs GFP [2, 14]: 0.5804 log2

- Difference (log2), PP1 vs untreated [1, 3]: -1.048 log2
Substance: TAF15
- Difference (log2), untreated vs GFP [2, 4]: 0.6755 log2

- Difference (log2), PP1 vs untreated [1, 7]: 0.5371 log2
Substance: TECR
- Difference (log2), untreated vs GFP [2, 8]: -0.1984 log2

- Difference (log2), PP1 vs untreated [1, 7]: 0.5786 log2
Substance: TFAM
- Difference (log2), untreated vs GFP [2, 8]: -2.855 log2

- Difference (log2), PP1 vs untreated [1, 5]: -0.2989 log2
Substance: TIMM50
- Difference (log2), untreated vs GFP [2, 6]: 1.085 log2

- Difference (log2), PP1 vs untreated [1, 13]: -0.07001 log2
Substance: TJP1
- Difference (log2), untreated vs GFP [2, 14]: 1.92 log2

- Difference (log2), PP1 vs untreated [1, 3]: -1.162 log2
Substance: TNKS1BP1
- Difference (log2), untreated vs GFP [2, 4]: 1.91 log2

- Difference (log2), PP1 vs untreated [1, 13]: -0.1328 log2
Substance: TOMM40
- Difference (log2), untreated vs GFP [2, 14]: 1.138 log2

- Difference (log2), PP1 vs untreated [1, 5]: -0.6623 log2
Substance: TOP2A
- Difference (log2), untreated vs GFP [2, 6]: 3 log2

- Difference (log2), PP1 vs untreated [1, 9]: -3.308 log2
Substance: TPM4
- Difference (log2), untreated vs GFP [2, 10]: 0.1774 log2
